“Also recorded” adds a separate entry of the source.
Tested on: Normal human dermal fibroblasts
Test: in vitro dermal fibroblast collagen assay (collagen 1 immunolabeling, flow cytometry)
Type: cell-based
Details: for Collagen 1 expression relative to untreated (%): 72 hours treatment, mean, n = 4, untreated = 100%; for effect on collagen type 1 (result in words): normal human dermal fibroblasts, 72 hours, several concentrations
Description: The neutral core human milk oligosaccharides LNT and LNnT were evaluated for their effect on collagen type 1. This was done using an in vitro dermal fibroblast collagen assay. […] For comparative reasons, also another human milk oligosaccharide was tested, i.e. 6′-silalyllactose (6′SL).
Normal human dermal fibroblasts were seeded in cell culture medium (Dulbecco's Modified Eagle Medium supplemented with 10% serum and 1% antibiotics) and allowed to adhere in a humidified cell incubator maintaining 37° C. and 5% CO2. Afterwards, the cells were starved with culture medium without serum for 16-24 hours to synchronize the cells their cell cycle. The starvation medium was removed and cell culture medium+LNT or LNnT respectively 6′SL at various concentrations was added to the cells. The cells were treated for 72 hours. The cells were then fixated and immunolabeled with antibodies specific for collagen 1. These labeled cells were analyzed using flow cytometry and compared to the untreated ones (medium without LNT respectively LNnT or 6′SL).

Structure (SMILES): CC(=O)N[C@H]1[C@H]([C@H](O)[C@H](O)CO)O[C@@](OC[C@H]2O[C@@H](O[C@H]3[C@H](O)[C@@H](O)[C@H](O)O[C@@H]3CO)[C@H](O)[C@@H](O)[C@H]2O)(C(=O)O)C[C@@H]1O [6′SL, 6′-silalyllactose, reference compound]
- Collagen 1 expression relative to untreated (%) (0.10 μM): 103%
- Collagen 1 expression relative to untreated (%) (1.00 μM): 121%
- Collagen 1 expression relative to untreated (%) (50 μM): 100%
- effect on collagen type 1 (result in words): much smaller effect

Structure (SMILES): CC(=O)N[C@H]1[C@H](O[C@H]2[C@@H](O)[C@@H](CO)O[C@@H](O[C@H]3[C@H](O)[C@@H](O)C(O)O[C@@H]3CO)[C@@H]2O)O[C@H](CO)[C@@H](O)[C@@H]1O[C@@H]1O[C@H](CO)[C@H](O)[C@H](O)[C@H]1O (stereo partly drawn) [LNT, lacto-N-tetraose]
- Collagen 1 expression relative to untreated (%) (0.50 μM): 139%
- Collagen 1 expression relative to untreated (%) (1.00 μM): 159%
- Collagen 1 expression relative to untreated (%) (50 μM): 164%
- Collagen 1 expression relative to untreated (%) (100 μM): 163%
- effect on collagen type 1 (result in words): increase collagen expression

Structure (SMILES): CC(=O)N[C@H]1[C@H](O[C@H]2[C@@H](O)[C@@H](CO)O[C@@H](O[C@H]3[C@H](O)[C@@H](O)C(O)O[C@@H]3CO)[C@@H]2O)O[C@H](CO)[C@@H](O[C@@H]2O[C@H](CO)[C@H](O)[C@H](O)[C@H]2O)[C@@H]1O (mixture of isomers) [LNnT, lacto-N-neotetraose]
- Collagen 1 expression relative to untreated (%) (0.05 μM): 117%
- Collagen 1 expression relative to untreated (%) (0.10 μM): 129%
- Collagen 1 expression relative to untreated (%) (1.00 μM): 167%
- Collagen 1 expression relative to untreated (%) (50 μM): 172%
- Collagen 1 expression relative to untreated (%) (100 μM): 177%
- effect on collagen type 1 (result in words): most active in inducing collagen synthesis; also recorded: increase collagen expression

— patent US20250161184A1, “NOVEL USE” (DSM IP Assets B.V., priority 2022, published 2025)
